Measured values as given in US20080167461A1, “Process for Preparing 3,6-Dichloropyridazine-1-Oxide” (SANKYO AGRO COMPANY, LIMITED, priority 2005, published 2008).

How the values were obtained:
[1] = test system: dominant weeds of rice paddies; experiment: Herbicidal activity in rice paddies, flooding soil treatment before or after weed germination (general statement); assay type: in vivo
Source text: The compound synthesized in Reference Example 1 has herbicidal action, and can be used as a herbicide.

rice plants = experiment: Chemical damage to transplanted rice plants (flooding soil treatment, pot test); assay type: in vivo
Source text: (§1) Rice paddy soil was filled into a 1/10,000a pot, followed by mixing seeds of dormancy awakening Echinochloa oryzicola and Scirpus joncoides, and annual broadleaf weeds (Lindernia spp. and Rotala indica) in 1 cm of the surface layer of soil. In addition, Cyperus serotinus tubers subjected to accelerated germination were planted, followed by transplanting rice seedlings at the 2.2 leaf stage and growing under flooding conditions in a greenhouse. Three days after transplant, a predetermined dose of the wettable powder prepared according to Reference Example 2 was diluted with water, the soil was treated with a spraying solution thereof under flooding conditions and herbicidal effects and chemical damage to the transplanted rice plants were measured according to the evaluation criteria shown below 25 days after treatment.
(§2) 0: Growth inhibition rate 0 to 10%
(§3) 1: Growth inhibition rate 11 to 30%
(§4) 2: Growth inhibition rate 31 to 50%
(§5) 3: Growth inhibition rate 51 to 70%
(§6) 4: Growth inhibition rate 71 to 90%
(§7) 5: Growth inhibition rate 91 to 100%

Cyperus serotinus = experiment: Treatment prior to germination of rice paddy weeds (flooding soil treatment, pot test); assay type: in vivo; settings: dose 10 g/a; wettable powder diluted with water, treated 3 days after transplant under flooding; evaluated 25 days after treatment
Source text: as §1, §2, §3, §4, §5, §6, §7

Echinochloa oryzicola = experiment: as above; assay type: in vivo; settings: dose 10 g/a; wettable powder diluted with water, treated 3 days after transplant under flooding; evaluated 25 days after treatment
Source text: as §1, §2, §3, §4, §5, §6, §7

Scirpus joncoides = experiment: as above; assay type: in vivo; settings: dose 10 g/a; wettable powder diluted with water, treated 3 days after transplant under flooding; evaluated 25 days after treatment
Source text: as §1, §2, §3, §4, §5, §6, §7

[2] = test system: annual broadleaf weeds (Lindernia spp. and Rotala indica); experiment: as above; assay type: in vivo; settings: dose 10 g/a; wettable powder diluted with water, treated 3 days after transplant under flooding; evaluated 25 days after treatment
Source text: as §1, §2, §3, §4, §5, §6, §7

Cc1cccc(C)c1Oc1nnc(Cl)cc1O [Reference Example 1, 6-Chloro-3-(2,6-dimethylphenoxy)-4-pyridazinol]
herbicidal activity against dominant weeds of rice paddies [1]: demonstrates herbicidal activity
melting point: 214 to 215 °C
chemical toxicity with respect to rice (rice plants; flooding soil treatment before or after weed germination, general statement): without demonstrating problems in terms of chemical toxicity
activity against rice plants (chemical damage grade) (rice plants; transplanted rice seedlings (2.2 leaf stage), dose 10 g/a, evaluated 25 days after treatment): 0 (Growth inhibition rate 0 to 10%)
herbicidal activity (growth inhibition grade) against Cyperus serotinus (Cyperus serotinus): 5 (Growth inhibition rate 91 to 100%)
herbicidal activity (growth inhibition grade) against Echinochloa oryzicola (Echinochloa oryzicola): 2 (Growth inhibition rate 31 to 50%)
herbicidal activity (growth inhibition grade) against Scirpus joncoides (Scirpus joncoides): 5 (Growth inhibition rate 91 to 100%)
herbicidal activity (growth inhibition grade) against broadleaf weeds [2]: 5 (Growth inhibition rate 91 to 100%)
